In publication PMC3562233 (PLoS ONE, 2013):

Key:
V27A M2 [1] = target: T1, V27A M2 (Influenza A virus, UniProt P0DOF5, V27A); type: cell-based
S31N M2 [2] = target: T2, S31N M2 (Influenza A virus, UniProt P0DOF5, S31N); type: cell-based
V27A M2 [3] = target: T1, V27A M2; type: cell-based, influenza A virus (Udorn strain)
S31N M2 [4] = target: T2, S31N M2; type: cell-based, influenza A virus (Udorn strain)

## O=[N+]([O-])c1ccc(CNC23CC4CC(CC(C4)C2)C3)cc1 [Compound 4, 1-adamantyl (4-nitrobenzyl)amine]
V27A M2 [1]
  % inhibition at 100 µM in TEVC V27A: 9.7 ± 0.3%
S31N M2 [2]
  % inhibition at 100 µM in TEVC S31N: 15.9 ± 0.2%

## NC1CCC2(CC1)C1CC3CC(C1)CC2C3 (stereo not drawn) [spiroadamantane amine]
V27A M2 [3]
  concentration that clearly increased growth of the V27A strain: ≥ 0.01 µM

## NC12CC3CC(CC(C3)C1)C2 [Amantadine, reference compound]
S31N M2 [4]
  activity against S31N mutant in the yeast assay: did not increase the growth
V27A M2 [3]
  activity against V27A mutant in the yeast assay: did not increase the growth

## CC1(C)C2CCC1(C)C(N1CCNCC1)C2.Cl.Cl (stereo not drawn) [Compound 16, 1-(1,7,7-trimethylbicyclo[2.2.1]hept-2-yl)piperazine dihydrochloride]
S31N M2 [4]
  activity against S31N mutant in the yeast assay: inactive
